Literature values in patent publication US20170196794A1, “Oral Composition” (Kao Corporation, priority 2014, published 2017).

details: 20° C.

In order of rising solubility in water:
1. OC[C@@H](O)[C@@H](O)[C@H](O)[C@H](O)CO [mannitol]  18 % by mass
2. OC[C@@H](O)[C@@H](O)CO [erythritol]  33 % by mass
3. OC[C@@H](O)[C@@H](O[C@H]1O[C@H](CO)[C@@H](O)[C@H](O)[C@H]1O)[C@H](O)[C@@H](O)CO [maltitol]  60 % by mass
4. OC[C@@H](O)[C@H](O)[C@@H](O)CO [xylitol]  66 % by mass
5. OC[C@@H](O)[C@@H](O)[C@H](O)[C@@H](O)CO [sorbitol]  72 % by mass
